Several values for one entry are separate records, joined by “and”; a condition that tells them apart may be missing. Equal entries are not always repeated.
Legend:
[1] = tested on: mononuclear cells; assay: Ex-vivo expansion of whole mononuclear cell fraction (MNC) cultures; FACS of reselected CD34+ cells; assay type: cell-based, human; conditions: 10^−6 M + cytokines; for % CD34/Lin−: reselected CD34+ fraction, listed as RAR antagonist
Description: Human blood cells were obtained from umbilical cord blood from female patients following full-term, normal delivery (informed consent was obtained).
Samples were collected and processed within 12 hours postpartum. Blood was mixed with 3% Gelatin (Sigma, St. Louis, Mo.), sedimented for 30 minutes to remove most red blood cells. The leukocyte-rich fraction was harvested and layered on a Ficoll-Hypaque gradient (1.077 gram/ml; Sigma), and centrifuged at 400 g for 30 minutes. The mononuclear cell fraction in the interface layer was collected, washed three times and resuspended in phosphate-buffered saline (PBS) solution (Biological Industries) containing 0.5% bovine serum albumin (BSA, Fraction V; Sigma).
Alternatively, whole mononuclear fraction cells (MNC) were isolated, cultured and supplemented with cytokines, as above.
CD34^+ purified and whole MNC cultures were prepared and maintained as described above. AGN 194310 RAR antagonist was added to test cultures at concentrations ranging from 1×10^−3-1×10^−11 M [or 410 μg/l to 4.1×10^−5 μg/l]. The antagonist was added for a predetermined, limited period, for up to three weeks or continuously during the entire culture period.
CD34 surface expression on short and long-term cultures initiated either with purified CD34^+ cells or the entire MNC fraction was determined as follows: CD34^+ cells were positively reselected (Miltenyi kit) and counted. Purity was confirmed by subsequent FACS and cell morphology analysis.
Reselected CD34^+ cell subsets were stained for the following combination of antigens: CD34PE/CD38FITC and CD34PE/38, 33, 14, 15, 3, 4, 61, 19 (Lin) FITC. The fraction positive for CD34 and negative for CD38 was defined as CD34^+CD38^−. The fraction positive for CD34 and negative for LIN was defined as CD34^+Lin^− cell fraction.
Total cell counts, numbers of CD34^+ cells and subsets, and CFU numbers are presented as cumulative numbers, with the assumption that the cultures had not been passaged; i.e., the number of cells per ml were multiplied by the number of passages performed.

[2] = tested on: primary hepatocytes; assay: Primary hepatocyte cultures; α-fetoprotein/albumin immunostaining and Giemsa morphology; assay type: cell-based, mice; conditions: for oval cell population (Giemsa) / α-fetoprotein (AFP) expression vs control: 10^−5 M, three week old primary cultures, no cytokines
Description: Three intact livers were harvested from 3 week old VLVC female mice (Harlan Laboratories, Jerusalem, Israel), dissected and washed twice with DMEM (Beit Haemek, Israel), incubated with DMEM in the presence 0.05% collagenase for 30 minutes at 37° C., ground and passed through a 200 μm mesh sieve, yielding individual hepatocytes. Cells were washed twice and viability was ascertained with trypan blue. Cells were plated in collagen-coated, 35 mm tissue culture plates at a density of 4-×10^4 live cells/ml in F12 media (containing 15 mM Hepes, 0.1% glucose, 10 mM sodium bicarbonate, 100 units/ml penicillin-streptomycin, glutamine, 0.5 units/ml insulin, 7.5 m cg/ml hydrocortisone, and 10% fetal bovine serum). Medium was changed after 12 hours, the cells were washed twice with phosphate buffered saline (PBS) and new medium was added. Medium was changed twice a week.
Hepatocytes were also grown in the presence of Epidermal Growth Factor (EGF), Platelet-Derived Growth Factor β chain (PDGF-BB), Fibroblast growth Factors (FGF4) and Hepatocyte Growth Factor (HGF), at 20-50 ng/ml each, for the entire culturing period according to the method of Schwartz et al. (Schwartz R E, Reyes M, Koodie L, Jiang Y, Blackstad M, Lund T, Lenvik T, Johnson S, Hu W S, Verfaillie C M. Multipotent adult progenitor cells from bone marrow differentiate into functional hepatocyte-like cells. J Clin Invest. 2002; 109 (10): 1291-302). Hepatocytes were also grown in serum free medium according to the method of Runge et al. (Runge D, Runge D M, Jager D, Lubecki K A, Beer Stolz D, Karathanasis S, Kietzmann T, Strom S C, Jungermann K, Fleig W E, Michalopoulos G K. Serum-free, long-term cultures of human hepatocytes: maintenance of cell morphology, transcription factors, and liver-specific functions. Biochem Biophys Res Commun. 2000; 269(1): 46-53).
In all of the above-mentioned hepatocytes culture conditions, cells are grown in the presence or absence of the retinoic acid antagonist AGN 194310 at concentrations ranging from 10^−5 M to 10^−9 M.
After a period of 3 weeks, cultures treated with 10^−5 M antagonist were detached with 0.25% trypsin, split and replated at a 1:2 ratio. The cells were either immunostained as described below, or visualized with Giemsa staining.
Murine hepatocyte cultures supplemented with EGF and HGF were evaluated as primary cultures, or following first and second passages. First passage cultures were grown for 2 weeks, split 1:2 and immunostained 8 days later for the presence of albumin, as described below. Second passage cultures were similarly grown for 2 weeks, split 1:2, and grown for an additional week, then split 1:4 and similarly immunostained 4 days later.
Ex-vivo expanded cells and hepatocytes were stained with Giemsa stain, according to manufacturer's instructions (Shandon, Pittsburg, Pa.) for 4 minutes at room temperature, washed in buffer solution for 4 minutes and washed 3-4 times with rinse solution.
Hepatocytes were probed for expression of α-fetoprotein (AFP) using a rabbit polyclonal antibody raised against a recombinant protein of human origin that cross-reacts with AFP from mouse (H-140 Santa Cruz Technology, Santa Cruz, Calif.), and albumin using a rabbit antiserum to mouse albumin (Cappel-ICN, Aurora, Ohio). Cells were fixed in methanol at −20° C. for 10 minutes, rinsed with PBS for 5 minutes, and permeabilized with 0.1% triton-X (Sigma, Jerusalem, Israel) in PBS for 5 minutes. The cells were then washed with Tris buffer saline (TBS) for 5 minutes and incubated with 1% bovine serum albumin (BSA) in PBS for 10 minutes. Endogeneous peroxidases were inactivated by incubation with peroxidase block (Envision, Dako, Carpinteria, Calif.) for 5 minutes, at room temperature. Cells were incubated with antibodies raised in rabbit against mouse albumin (at a dilution of 1:100); or against α-fetoprotein (at a dilution of 1:25) for 30 minutes. […]

[3] = listed as retinoic acid antagonist

SMILES: CCc1ccc(C2=CC(C)(C)Sc3ccc(C#Cc4ccc(C(=O)O)cc4)cc32)cc1 [AGN 194310, 4-[[4-(4-ethylphenyl)-2,2-dimethyl-(2H)-thiochroman-6-yl]-ethynyl]benzoic acid]
- No of CD34+/Lin− × 10^4 (cumulative value) ([1]; 2 weeks): 132.5 × 10^4
- No of CD34 cells × 10^4 (cumulative value) ([1]; 2 weeks): 169 × 10^4
- % CD34/Lin− ([1]; 2 weeks): 78% and 78.4%
- No of CD34+/Lin− × 10^4 (cumulative value) ([1]; 5 weeks): 237.8 × 10^4
- No of CD34 cells × 10^4 (cumulative value) ([1]; 5 weeks): 985 × 10^4
- % CD34/Lin− ([1]; 5 weeks): 24% and 24.1%
- number of hepatocytes in second passage cultures vs controls ([2]; 10^−5 M to 10^−7 M, second passage, EGF and HGF supplemented): Significantly greater numbers of hepatocytes
- oval cell population (Giemsa) [2]: marked increase
- α-fetoprotein (AFP) expression vs control [2]: marked increase
- oval cell population (Giemsa) [2, 3]: large population
- α-fetoprotein (AFP) expression vs control [2, 3]: increase
- oval cells in first passage cultures ([2]; first passage, EGF and HGF supplemented): numerous islets of oval cells
- α-fetoprotein staining ([2]; three weeks old primary cultures supplemented with EGF and HGF): Significant strong AFP staining
